Molecular target: T1, GBA2 E527G mutant and E527G/D667G double mutant (Homo sapiens, UniProt Q9HCG7, E527G)
T1 construct: expressed in transfected cells; host or cells: HEK293T
T1 sequence (Q9HCG7 1-927 E527G): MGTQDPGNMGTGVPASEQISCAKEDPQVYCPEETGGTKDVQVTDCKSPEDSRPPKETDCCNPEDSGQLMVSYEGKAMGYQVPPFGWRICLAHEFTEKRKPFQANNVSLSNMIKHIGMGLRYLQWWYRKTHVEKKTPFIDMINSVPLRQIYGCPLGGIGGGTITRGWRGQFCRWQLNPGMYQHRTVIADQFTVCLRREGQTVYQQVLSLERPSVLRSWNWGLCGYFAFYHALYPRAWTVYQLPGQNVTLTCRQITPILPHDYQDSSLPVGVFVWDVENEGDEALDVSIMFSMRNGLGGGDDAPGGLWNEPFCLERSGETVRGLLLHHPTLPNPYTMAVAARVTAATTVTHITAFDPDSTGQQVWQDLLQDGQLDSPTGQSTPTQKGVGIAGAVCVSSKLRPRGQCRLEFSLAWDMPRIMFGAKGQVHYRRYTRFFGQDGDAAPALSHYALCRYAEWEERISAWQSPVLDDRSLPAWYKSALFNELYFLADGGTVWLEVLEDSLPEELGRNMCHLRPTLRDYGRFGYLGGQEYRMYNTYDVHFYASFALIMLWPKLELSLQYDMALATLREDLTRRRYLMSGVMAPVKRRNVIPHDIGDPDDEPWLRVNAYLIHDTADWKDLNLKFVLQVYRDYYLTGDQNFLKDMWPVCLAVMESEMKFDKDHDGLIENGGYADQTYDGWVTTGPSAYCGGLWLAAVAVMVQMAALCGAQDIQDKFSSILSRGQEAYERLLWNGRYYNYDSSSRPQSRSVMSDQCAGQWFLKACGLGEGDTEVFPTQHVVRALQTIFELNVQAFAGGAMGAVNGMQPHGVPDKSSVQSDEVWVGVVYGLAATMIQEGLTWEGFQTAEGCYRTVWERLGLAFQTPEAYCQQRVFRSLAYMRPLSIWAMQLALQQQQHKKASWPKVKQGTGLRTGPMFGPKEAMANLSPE
Experiment: ABP labeling of mutant GBA2 expressed in HEK293T cells
Type: biochemical
Details: HEK293T cells expressing mutant GBA2
Experimental: Figure 4 (A) ABP labeling of β‐D‐glucosidases. A lysate of HEK293T cells expressing human GBA, GBA2 and GBA3 was incubated with indicated ABPs (6, 9 or 10) for 30 min at pH 6.0. Fluorescently labeled proteins were visualized after SDS‐PAGE. (B) Labeling with ABP 6 of wild type or mutant GBA2 (E527G nucleophile mutation and D667G acid/base mutation) expressed in HEK293T cells.
Cell culture: HEK293T (CRL‐3216) were purchased from ATCC (Manassas, VA, USA). HEK293T cells were cultured in DMEM medium (Sigma‐Aldrich), supplied with 10 % (v/v) FCS, 0.1 % (w/v) penicillin/streptomycin and 1 % (v/v) Glutamax, under 7 % CO2. […] First the GBA Knockout cells were generated using the annealed oligonucleotides (top strand) 5’‐CACCGCGCTATGAGAGTACACGCAG‐3’ and (bottom strand 5’‐AAACCTGCGTGTACTCTCATAGCGC‐3’ and after ligation in the BbsI site of the px330 and subsequent transfection into the HEK293T cells. Single cells were created and the different clones were analyzed for lack of expression of GBA with enzyme activity assays and ABPs and subsequent genomic sequence analysis. The true GBA knockout cells were next used to create the GBA/GBA2 double knockout cells (using the px330 and the following annealed and ligated oligonucleotides (top strand 5‐CACCGGACGGACTGCTGCAATCCGG‐3’ and bottom strand 5’‐AAACCCGGATTGCAGCAGTCCGTCC‐3’. […]

## CN1/C(=C/C=C/C=C/C2=[N+](CCCCCC(=O)NCc3cn(CCCCCCCCN4[C@H]5[C@H](O)[C@@H](O)[C@H](O)C[C@H]54)nn3)c3ccccc3C2(C)C)C(C)(C)c2ccccc21 (stereo partly shown) [ABP 6]
  labeling of GBA2 E527G mutant and E527G/D667G double mutant: no longer labeled

Reference: paper PMC8596838, “Xylose‐Configured Cyclophellitols as Selective Inhibitors for Glucocerebrosidase” (Chembiochem, 2021)
